# Patent publication US11957680B2, “Pyruvate kinase activators for use in treating blood disorders” (Agios Pharmaceuticals, Inc., priority 2017, dated 2024)
# What was measured:
# PKR R510Q = PKR R510Q (Homo sapiens, UniProt P30613, R510Q); assay: PKR mutant assay (R510Q), AC50, LDH/NADH-coupled, absorbance at 340 nm; assay type: biochemical; details: for AC50: Table 2, enzyme assay, read-out: PK R510Q AC50; for EC50: read-out: PK R510Q
# Method: (§1) Example 11. PKR Mutant Assay
# (§2) PKR or PKR mutant enzyme solution was diluted into a reaction mix, which contains 1× buffer (100 mM KCl, 50 mM Tris pH 7.5, 5 mM MgCl2) as well as PEP (conc depends on enzyme), 180 μM NADH, 0.5 units LDH, 1 mM DTT, 0.03% BSA; final assay concentrations after 1.11 fold dilution are indicated.
# (§3) 2 μL of test compound was added into wells first, and then 180 μL reaction mix was added.
# (§4) Reactions mixture with test compound was assembled except for ADP, and plates were stored for 60 minutes at room temperature.
# (§5) 20 uL ADP was added to start reaction at room temperature and reaction progress was measured as changes in absorbance at 340 nm wavelength at room temperature.
# (§6) Test Compound Preparation:
# (§7) Test compound stock was made at 100× concentration in 100% DMSO (10 mM)
# (§8) 1 to 3 dilutions were made for 11 points (i.e. 50 μl of first concentration added to 100 μl 100% DMSO to yield 3.33 mM, 50 μl of this added to 100 μl DMSO to yield 1.11 mM, and so forth) • 1 to 100 dilution into assay (2 μl in 200 μl) yielded starting concentration of 100 μM, decreasing 3 fold for 11 points.
# (§9) Assay Buffer: 100 mM KCl, 50 mM Tris 7.5, 5 mM MgCl2, 1 mM DTT, 0.03% BSA
# (§10) Reaction Mixture: PKR mutant enzyme: 40-400 ng/well; ADP: 0.2-1.65 mM; PEP: 0.1-0.5 mM; NADH: 180 μM; LDH: 0.5 units (Sigma #59023); DTT: 1 mM; BSA: 0.03%.
# wild type PKR [1] = molecular target: T1, wild type PKR (Homo sapiens, UniProt P30613); assay: PKR (wild type) enzyme AC50 assay, LDH/NADH-coupled, absorbance at 340 nm; assay type: biochemical; details: for AC50: Table 2, enzyme assay, read-out: PKR WT AC50; for EC50: read-out: PKR WT
# Method: as §1, §2, §3, §4, §5, §6, §7, §8, §9, §10
# wild type PKR [2] = molecular target: T1, wild type PKR; assay: Cell based ATP assay in purified red blood cells (Cell-Titer-Glo); parameters: endogenous in cells; host or cells: purified red blood cells from healthy volunteers; details: overnight at 37° C., ATP levels; for AC50: Table 2, RBCs; for EC50 / Cell based ATP assay: Table 4, AC50, RBCs
# Method: Example 16. Red Blood Cell (RBC) Purification
# Fresh blood drawn from healthy volunteers into K2EDTA tubes was collected. Whole blood was pelleted by spinning at 500 g for 10 minutes. Cut transfusion bag port off of Purecell leukocyte reduction neofilter (Fisher NC0267633) one (1) inch above filter. Attach a 10 ml syringe barrel to the remaining cut tubing attached to neofilter. The plasma layer was removed from the pellet of the whole blood and the pellet was resuspended in 2× volume of phosphate buffered saline (PBS). Transfer 9 ml re-suspended blood cell pellet to prepared 10 ml syringe that is attached to the neofilter. Allow whole blood to gravity flow through filter until all fluid runs through upper tubing into filter disc. Add plunger to the syringe, remove syringe from clamp and invert the filter, then plunge air through the syringe filter system. Using a new 5 ml syringe, remove filtered RBCs from the bag by the syringe port and transfer purified RBCs to a 5 ml snap cap tube that has been incubated on ice. Spin 5 ml snap cap tube at 500 g for 10 minutes at 15 C, aspirate supernatant and resuspend in AGAM (1×PBS, 1% glucose, 170 mg/L adenine, 5.25 g/L mannitol) at a density of 4×10^9 cells/mL.
# Example 17. Cell Based ATP Assay
# For cell based ATP assays, the compound as described herein was prepared in 100% DMSO as a 10 mM stock. Serial dilutions (1:4) were performed in 96-well V-bottom storage plate and then added 1:100 to 96-well V-bottom plates containing AGAM. RBCs were diluted in AGAM media to a density of 1×10^7 cells/mL before added 90 μL/well to black clear bottom assay plates (final compound concentration at 0.1% DMSO concentration). Assay plates were sealed using aluminum foil seals and incubated overnight at 37° C. in a humidified chamber. ATP levels were read out using Cell-Titer-Glo (Promega).
# PKR K410E = PKR K410E (Homo sapiens, UniProt P30613, K410E); assay: PKR mutant assay (K410E), AC50, LDH/NADH-coupled, absorbance at 340 nm; assay type: biochemical; details: for AC50: Table 2, enzyme assay
# Method: as §1, §2, §3, §4, §5, §6, §7, §8, §9, §10
# Chain of PKR R510Q (P30613 whole entry R510Q): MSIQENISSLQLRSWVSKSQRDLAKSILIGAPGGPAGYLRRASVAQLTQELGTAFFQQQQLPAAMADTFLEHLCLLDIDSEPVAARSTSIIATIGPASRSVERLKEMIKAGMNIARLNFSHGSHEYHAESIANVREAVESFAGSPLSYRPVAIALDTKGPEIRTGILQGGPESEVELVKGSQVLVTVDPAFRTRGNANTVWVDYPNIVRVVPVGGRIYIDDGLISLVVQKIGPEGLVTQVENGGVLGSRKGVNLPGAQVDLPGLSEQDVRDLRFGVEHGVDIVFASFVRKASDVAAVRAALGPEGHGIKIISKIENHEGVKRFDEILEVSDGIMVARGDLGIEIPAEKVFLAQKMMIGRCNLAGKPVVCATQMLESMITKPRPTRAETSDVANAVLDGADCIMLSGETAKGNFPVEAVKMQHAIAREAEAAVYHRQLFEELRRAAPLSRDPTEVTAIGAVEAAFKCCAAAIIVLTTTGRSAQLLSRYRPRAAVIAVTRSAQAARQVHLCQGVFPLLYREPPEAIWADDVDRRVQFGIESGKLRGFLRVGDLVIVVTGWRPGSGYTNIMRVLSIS
# Chain of PKR K410E (P30613 whole entry K410E): as the sequence (P30613 whole entry R510Q) above, with K410E, Q510R counted along it
# T1 sequence (P30613 whole entry): as the sequence (P30613 whole entry R510Q) above, with Q510R counted along it
SMILES,AC50 (PKR R510Q),AC50 (wild type PKR [1]),AC50 (wild type PKR [2]),AC50 (PKR K410E),"EC50 (PKR R510Q; Table 4, AC50, enzyme assay)","EC50 (wild type PKR [1]; Table 4, AC50, enzyme assay)",EC50 (wild type PKR [2]),"EC50 (PKR K410E; Table 4, AC50, enzyme assay)",further results
Cc1nc2c(s1)c1cnn(Cc3cccc4cn[nH]c34)c(=O)c1n2C [Compound 65],301 to 800 nM,> 800 nM,> 1000 nM,301 to 800 nM,–,–,–,–,–
Cn1c2nc(Cc3cccc(CO)c3)sc2c2cnn(Cc3cccc4[nH]ncc34)c(=O)c21 [Compound 118],< 300 nM,< 300 nM,> 1000 nM,< 300 nM,–,–,–,–,–
Cn1c2nc(Cc3cc[nH]n3)sc2c2cnn(Cc3ccc(O)c(N)c3)c(=O)c21 [Compound 256],–,–,–,–,< 300 nM,< 300 nM,≤ 1000 nM,< 300 nM,–
O=c1c2c(cnn1Cc1ccccc1)c1sc(Cc3cc[nH]n3)nc1n2Cc1ccccc1 [Compound 407],–,–,–,–,< 300 nM,–,–,> 800 nM,"PKR WT (wild type PKR [1]; Table 4, AC50, enzyme assay): No Fit; Cell based ATP assay (wild type PKR [2]): No Fit"
COC(=O)C(C(=O)OC)c1nc2c(s1)c1cnn(Cc3cccc4[nH]ncc34)c(=O)c1n2C [Compound 113],> 800 nM,> 800 nM,> 1000 nM,> 800 nM,–,–,–,–,–
Cn1c2nc([S+](C)[O-])sc2c2cnn(Cc3cnc(N)s3)c(=O)c21 (stereo not shown) [Compound 101],> 800 nM,> 800 nM,> 1000 nM,> 800 nM,–,–,–,–,–
Cc1nc2c(s1)c1cnn(CCCO)c(=O)c1n2C [Compound 46],> 800 nM,> 800 nM,> 1000 nM,> 800 nM,–,–,–,–,–
Cn1c2nc(C(O)c3cc[nH]n3)sc2c2cnn(Cc3cccc4[nH]ncc34)c(=O)c21 (stereo not shown) [Compound 148],< 300 nM,< 300 nM,≤ 1000 nM,< 300 nM,–,–,–,–,–
Cn1c2nc(Cc3cc[nH]n3)sc2c2cnn(Cc3cccc4[nH]ccc34)c(=O)c21 [Compound 246],–,–,–,–,< 300 nM,< 300 nM,≤ 1000 nM,< 300 nM,–
Cn1ccc(CCn2ncc3c4sc(Cc5cc[nH]n5)nc4n(C)c3c2=O)n1 [Compound 392],–,–,–,–,< 300 nM,< 300 nM,≤ 1000 nM,< 300 nM,–
Cn1c2nc(Cc3ccccc3)sc2c2cnn(Cc3cccc4[nH]ncc34)c(=O)c21 [Compound 91],< 300 nM,< 300 nM,≤ 1000 nM,< 300 nM,–,–,–,–,–
Cc1nc2c(s1)c1cnn(Cc3ccc4[nH]cnc4c3)c(=O)c1n2C [Compound 73],301 to 800 nM,> 800 nM,> 1000 nM,301 to 800 nM,–,–,–,–,–
Cn1cc(Cc2nc3c(s2)c2cnn(Cc4cccc(C(N)=O)c4)c(=O)c2n3C)cn1 [Compound 389],–,–,–,–,301 to 800 nM,> 800 nM,> 1000 nM,> 800 nM,–
O=c1c2c(cnn1Cc1ccccc1)c1sc(Cc3ccccn3)nc1n2-c1ccccc1 [Compound 405],–,–,–,–,–,> 800 nM,–,–,"PK R510Q (PKR R510Q; Table 4, AC50, enzyme assay): No Fit; Cell based ATP assay (wild type PKR [2]): No Fit; PKR K410E (PKR K410E; Table 4, AC50, enzyme assay): No Fit"
Cn1c2nc(Cn3cnnc3)sc2c2cnn(Cc3cccc4[nH]ncc34)c(=O)c21 [Compound 294],–,–,–,–,301 to 800 nM,> 800 nM,> 1000 nM,> 800 nM,–
CSc1nc2c(s1)c1cnn(Cc3csc(-n4c(C)ccc4C)n3)c(=O)c1n2C [Compound 129],> 800 nM,> 800 nM,> 1000 nM,> 800 nM,–,–,–,–,–
Cn1c2nc(Cn3cccn3)sc2c2cnn(Cc3cccc4[nH]ncc34)c(=O)c21 [Compound 292],–,–,–,–,< 300 nM,< 300 nM,≤ 1000 nM,< 300 nM,–
Cn1c2nc(Cc3cc[nH]n3)sc2c2cnn(Cc3nccc4[nH]ncc34)c(=O)c21 [Compound 199],–,–,–,–,< 300 nM,< 300 nM,≤ 1000 nM,< 300 nM,–
Cn1c2nc(S(N)(=O)=O)sc2c2cnn(Cc3cccc4[nH]ncc34)c(=O)c21 [Compound 141],< 300 nM,< 300 nM,≤ 1000 nM,< 300 nM,–,–,–,–,–
